Active and inactive are the calls of the source. No cut-off for these calls is given here.
What was measured:
[1] = target: Cruzipain (Trypanosoma cruzi) (UniProt P25779); assay: Inhibition of C-terminal truncated Trypanosoma cruzi Tulahuen Cruzain using Z-FR-AMC as substrate at 100 uM measured for 5 mins by fluorescence based analysis
[2] = target: Cruzipain (Trypanosoma cruzi) (UniProt P25779); assay: Inhibition of C-terminal truncated Trypanosoma cruzi Tulahuen Cruzain using Z-FR-AMC as substrate at 100 uM preincubated with enzyme for 10 mins and measured for 5 mins by fluorescence based analysis; conditions: time 15.0 min
Cruzipain [3] = target: T1, Cruzipain (Trypanosoma cruzi, UniProt P25779); assay: Inhibition of C-terminal truncated Trypanosoma cruzi Tulahuen Cruzain using Z-FR-AMC as substrate measured for 5 mins by fluorescence based analysis
T1 sequence (P25779 whole entry, the tested form may be a part): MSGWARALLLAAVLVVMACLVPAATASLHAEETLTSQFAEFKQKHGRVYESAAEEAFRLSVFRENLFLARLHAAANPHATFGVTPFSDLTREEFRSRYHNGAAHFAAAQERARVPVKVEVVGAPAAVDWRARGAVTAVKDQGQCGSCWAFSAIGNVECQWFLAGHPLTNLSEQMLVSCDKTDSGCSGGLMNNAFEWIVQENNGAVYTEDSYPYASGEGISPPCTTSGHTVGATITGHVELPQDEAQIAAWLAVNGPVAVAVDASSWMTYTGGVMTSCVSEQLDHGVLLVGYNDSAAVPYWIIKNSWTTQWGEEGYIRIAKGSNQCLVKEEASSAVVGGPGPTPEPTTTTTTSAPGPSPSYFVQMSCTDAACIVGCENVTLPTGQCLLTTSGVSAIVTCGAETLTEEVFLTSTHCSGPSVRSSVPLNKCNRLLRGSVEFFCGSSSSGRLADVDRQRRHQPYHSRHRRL

[4] = target: Cruzipain (Trypanosoma cruzi) (UniProt P25779); assay: Competitive inhibition of C-terminal truncated Trypanosoma cruzi Tulahuen Cruzain assessed as increase in Km(app) using Z-FR-AMC as substrate by Michaelis-menten based analysis
Cruzipain [5] = target: T1, Cruzipain; assay: Competitive inhibition of C-terminal truncated Trypanosoma cruzi Tulahuen Cruzain using Z-FR-AMC as substrate by Michaelis-menten based analysis
[6] = target: Cruzipain (Trypanosoma cruzi) (UniProt P25779); assay: Competitive inhibition of C-terminal truncated Trypanosoma cruzi Tulahuen Cruzain assessed as constant Vmax using Z-FR-AMC as substrate by Lineweaver-Burk plot analysis
[7] = target: Cruzipain (Trypanosoma cruzi) (UniProt P25779); assay: Ratio of IC50 for inhibition of C-terminal truncated Trypanosoma cruzi Tulahuen Cruzain in presence of different concentrations of Triton to IC50 for inhibition of C-terminal truncated Trypanosoma cruzi Tulahuen Cruzain
[8] = target: Cruzipain (Trypanosoma cruzi) (UniProt P25779); assay: Ratio of IC50 for inhibition of C-terminal truncated Trypanosoma cruzi Tulahuen Cruzain in presence of 0% Triton and BSA to IC50 for inhibition of C-terminal truncated Trypanosoma cruzi Tulahuen Cruzain
Cathepsin L = Cathepsin L (Homo sapiens, UniProt P07711); assay: Inhibition of human recombinant Cathepsin L (18 to 333 residues) assessed as residual activity using Z-FR-AMC as substrate at 100 uM measured for 5 mins by fluorescence based analysis; conditions: recombinant human Cathepsin L (residues 18 to 333), probe Z-FR-AMC, read-out: Activity
Cathepsin L, sequence (P07711 whole entry, the tested form may be a part): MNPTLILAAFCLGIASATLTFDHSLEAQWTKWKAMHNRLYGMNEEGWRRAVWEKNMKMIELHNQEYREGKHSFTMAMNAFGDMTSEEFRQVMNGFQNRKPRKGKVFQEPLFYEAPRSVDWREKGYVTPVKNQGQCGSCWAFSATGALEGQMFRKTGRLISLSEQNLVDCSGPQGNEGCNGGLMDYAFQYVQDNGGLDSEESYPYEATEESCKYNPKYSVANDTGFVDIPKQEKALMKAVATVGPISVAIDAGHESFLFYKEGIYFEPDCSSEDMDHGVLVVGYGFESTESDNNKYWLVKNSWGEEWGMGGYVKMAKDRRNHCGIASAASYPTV

Trypanosoma cruzi [9] = assay: Trypanocidal activity against Trypanosoma cruzi Y infected in C57BL/6 mouse Peritoneal macrophages assessed as reduction in trypomastigotes release at 6.25 uM measured on day 5 post-infection; format: functional; conditions: Peritoneal macrophage, 120 h, time 5 day
Trypanosoma cruzi [10] = assay: Trypanocidal activity against Trypanosoma cruzi Y infected in C57BL/6 mouse Peritoneal macrophages assessed as reduction in trypomastigotes release at 100 uM measured on day 5 post-infection; format: functional; conditions: Peritoneal macrophage, 120 h, time 5 day
Peritoneal macrophage [11] = assay: Cytotoxicity against C57BL/6 mouse Peritoneal macrophages assessed as cell damage at 0.19 to 400 uM measured after 24 hrs by LDH assay; format: toxicity, cell-based; conditions: dose 0.19-400 µM
Peritoneal macrophage [12] = assay: Cytotoxicity against C57BL/6 mouse Peritoneal macrophages infected with Trypanosoma cruzi Y assessed as cell damage at 0.19 to 400 uM measured after 24 hrs by LDH assay; format: toxicity, cell-based; conditions: dose 0.19-400 µM
Peritoneal macrophage [13] = assay: Effect on NO release in C57BL/6 mouse Peritoneal macrophages infected with Trypanosoma cruzi Y measured at 11 days post-infection by Griess reagent based assay; format: functional, cell-based; conditions: time 11.0 day
Trypanosoma cruzi [14] = assay: Trypanocidal activity against trypomastigote form of Trypanosoma cruzi Y assessed as reduction in parasite load at 6.25 uM incubated for 1 hr; format: functional
Trypanosoma cruzi [15] = assay: Trypanocidal activity against epimastigotes form of Trypanosoma cruzi Y assessed as parasite viability by MTT assay; format: functional, organism-based
Trypanosoma cruzi [16] = assay: Trypanocidal activity against epimastigotes form of Trypanosoma cruzi Y assessed as decrease in parasite growth at 200 uM pretreated for 1 hr followed by drug wash-out and measured after 72 hrs by optical microscopic analysis; format: functional
Trypanosoma cruzi [17] = assay: Trypanocidal activity against epimastigotes form of Trypanosoma cruzi Y assessed as decrease in parasite growth at 25 uM measured after 72 hrs by optical microscopic analysis; format: functional
Trypanosoma cruzi [18] = assay: Trypanocidal activity against trypomastigote form of Trypanosoma cruzi Y infected in C57BL/6 mouse Peritoneal macrophages assessed as reduction in intracellular parasite infection at 0.19 to 400 uM preincubated with parasite for 1 hr followed by infection and measured at 3 to 11 days post-infection; format: functional, organism-based; conditions: Peritoneal macrophage, dose 0.19-400 µM, time 3-11 day
Trypanosoma cruzi [19] = assay: Trypanocidal activity against epimastigotes form of Trypanosoma cruzi Y assessed as decrease in parasite growth at 400 uM measured after 72 hrs by optical microscopic analysis; format: functional

Cruzipain (Trypanosoma cruzi), sequence (P25779 123-467 limits assumed): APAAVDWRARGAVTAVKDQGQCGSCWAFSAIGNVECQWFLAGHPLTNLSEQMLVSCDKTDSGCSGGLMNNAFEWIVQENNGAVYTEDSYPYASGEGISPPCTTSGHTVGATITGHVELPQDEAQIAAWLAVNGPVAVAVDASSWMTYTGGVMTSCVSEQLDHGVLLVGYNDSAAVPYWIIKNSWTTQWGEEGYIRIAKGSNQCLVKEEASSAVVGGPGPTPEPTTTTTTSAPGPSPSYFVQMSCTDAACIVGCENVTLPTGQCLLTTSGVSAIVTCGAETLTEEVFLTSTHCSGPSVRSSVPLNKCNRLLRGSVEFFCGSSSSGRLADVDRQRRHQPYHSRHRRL

Q: Which inhibition [1] does the source give for Cc1ccc(CNC(=O)C2Cc3ccc(F)cc3C(=O)O2)o1 (configuration not stated) here?
A: Its inhibition is 13%.

Q: Cc1ccc(CNC(=O)[C@@H]2Cc3ccccc3CN2)o1 was tested. Which inhibition [1] did it give?
A: Its inhibition is 8%.

Q: Cc1ccc(CNC(=O)[C@H]2Cc3ccccc3CN2)o1 was tested. Which inhibition [1] did it give?
A: Its inhibition is 4%.

Q: How did the inhibition [1] turn out when O=C(NCc1ccccn1)C1Cc2ccccc2CN1 (configuration not stated) was run?
A: The inhibition was 7%.

Q: O=C(NCc1ccco1)[C@@H]1Cc2ccccc2CO1 was tested. Which inhibition [1] did it give?
A: The inhibition was 25%.

Q: With O=C(NCc1ccco1)C1Cc2ccccc2CN1 (racemic) as the compound, how does the inhibition [2] read?
A: The inhibition was 100%.

Q: And the IC50 (Cruzipain [3])?
A: Its IC50 is 3 µM.

Q: And the inhibition [4]?
A: Its inhibition is “Active”.

Q: What about the Ki (Cruzipain [5]) of the same compound?
A: Its Ki is 4.6 µM.

Q: And the inhibition [6]?
A: The inhibition was “Active”.

Q: What about the inhibition [1] of the same compound?
A: The inhibition was 100%.

Q: What about the Ratio IC50 [7] of the same compound?
A: Its Ratio IC50 is 3.

Q: What about the Ratio IC50 [8] of the same compound?
A: Its Ratio IC50 is 7.

Q: What about the activity at 5 min, 100 µM (Cathepsin L) of the same compound?
A: The activity at 5 min, 100 µM was 51%.

Q: And the inhibition at 6.25 µM (Trypanosoma cruzi [9])?
A: The inhibition at 6.25 µM was 18%.

Q: What about the inhibition at 100 µM (Trypanosoma cruzi [10]) of the same compound?
A: Its inhibition at 100 µM is 25%.

Q: What about the Activity (Peritoneal macrophage [11]) of the same compound?
A: Its Activity is “Non-Toxic”.

Q: And the Activity (Peritoneal macrophage [12])?
A: Its Activity is “Non-Toxic”.

Q: And the Activity (Peritoneal macrophage [13])?
A: Its Activity is “inactive”.

Q: And the inhibition at 6.25 µM (Trypanosoma cruzi [14])?
A: Its inhibition at 6.25 µM is 13%.

Q: And the Activity (Trypanosoma cruzi [15])?
A: The Activity was “inactive”.

Q: What about the inhibition at 200 µM (Trypanosoma cruzi [16]) of the same compound?
A: The inhibition at 200 µM was 20%.

Q: What about the inhibition at 25 µM (Trypanosoma cruzi [17]) of the same compound?
A: Its inhibition at 25 µM is 43%.

Q: For O=C(NCc1ccco1)C1Cc2c(F)cccc2CN1 (racemic), which IC50 (Cruzipain [3]) is on record?
A: The IC50 was 26 µM.

Q: And the inhibition [4]?
A: Its inhibition is “Active”.

Q: And the Ki (Cruzipain [5])?
A: The Ki was 27 µM.

Q: What about the inhibition [6] of the same compound?
A: Its inhibition is “Active”.

Q: What about the inhibition [1] of the same compound?
A: The inhibition was 100%.

Q: What about the Ratio IC50 [7] of the same compound?
A: The Ratio IC50 was 6.

Q: And the Ratio IC50 [8]?
A: Its Ratio IC50 is 10.

Q: What about the activity at 5 min, 100 µM (Cathepsin L) of the same compound?
A: The activity at 5 min, 100 µM was 65%.

Q: And the inhibition at 6.25 µM (Trypanosoma cruzi [9])?
A: Its inhibition at 6.25 µM is 51%.

Q: And the inhibition at 100 µM (Trypanosoma cruzi [10])?
A: The inhibition at 100 µM was 74%.

Q: What about the Activity (Peritoneal macrophage [11]) of the same compound?
A: The Activity was “Non-Toxic”.

Q: What about the Activity (Peritoneal macrophage [12]) of the same compound?
A: Its Activity is “Non-Toxic”.

Q: And the Activity (Peritoneal macrophage [13])?
A: The Activity was “inactive”.

Q: And the inhibition at 6.25 µM (Trypanosoma cruzi [14])?
A: Its inhibition at 6.25 µM is 39%.

Q: And the Activity (Trypanosoma cruzi [18])?
A: Its Activity is “Active”.

Q: And the Activity (Trypanosoma cruzi [15])?
A: The Activity was “inactive”.

Q: What about the inhibition at 200 µM (Trypanosoma cruzi [16]) of the same compound?
A: The inhibition at 200 µM was 12%.

Q: What about the inhibition at 25 µM (Trypanosoma cruzi [17]) of the same compound?
A: Its inhibition at 25 µM is 6%.

Q: What about the inhibition at 400 µM (Trypanosoma cruzi [19]) of the same compound?
A: The inhibition at 400 µM was 23%.

Reference: ChEMBL document CHEMBL5620378, “Structure-based discovery of novel cruzain inhibitors with distinct trypanocidal activity profiles” (Eur J Med Chem, 2023)
